# Measured values published in patent US20130096170A1 (priority 2011, published 2013).
# Assay: clinical
# Conditions: human, plasma, intravenous, full evaluable population
smiles,measurement,setting,value
Cc1cccc([C@H](C)c2cnc[nH]2)c1C [dexmedetomidine],AUC(0-inf),"AUC0-∞ Median, Dose Level 4, LD 1.00/CD 2.00 μg/kg/hr",25.7 ng·h/mL
same,AUC(0-inf),"AUC0-∞, Table 30 key summary (mean), Dose Level 1, LD 0.25/CD 0.2 μg/kg/hr",3.15 ng·h/mL
same,AUC(0-inf),"AUC0-∞, Table 30 key summary (mean), Dose Level 2, LD 0.50/CD 0.4 μg/kg/hr",6.67 ng·h/mL
same,AUC(0-inf),"AUC0-∞, Table 30 key summary (mean), Dose Level 3, LD 1.00/CD 0.7 μg/kg/hr",17.3 ng·h/mL
same,AUC(0-inf),"AUC0-∞, Table 30 key summary (mean), Dose Level 4, LD 1.00/CD 2.00 μg/kg/hr",29 ng·h/mL
same,clearance,"CL Mean, Dose Level 1, LD 0.25/CD 0.2 μg/kg/hr",537 mL/min
same,clearance,"CL Mean, Dose Level 2, LD 0.50/CD 0.4 μg/kg/hr",338 mL/min
same,clearance,"CL Mean, Dose Level 3, LD 1.00/CD 0.7 μg/kg/hr",309 mL/min
same,clearance,"CL Mean, Dose Level 4, LD 1.00/CD 2.00 μg/kg/hr",370 mL/min
same,clearance,"CL Median, Dose Level 1, LD 0.25/CD 0.2 μg/kg/hr",326 mL/min
same,clearance,"CL Median, Dose Level 2, LD 0.50/CD 0.4 μg/kg/hr",267 mL/min
same,clearance,"CL Median, Dose Level 3, LD 1.00/CD 0.7 μg/kg/hr",270 mL/min
same,clearance,"CL Median, Dose Level 4, LD 1.00/CD 2.00 μg/kg/hr",282 mL/min
same,clearance,"CL, Table 30 key summary (mean), Dose Level 1, LD 0.25/CD 0.2 μg/kg/hr",537 mL/min
same,clearance,"CL, Table 30 key summary (mean), Dose Level 2, LD 0.50/CD 0.4 μg/kg/hr",338 mL/min
same,clearance,"CL, Table 30 key summary (mean), Dose Level 3, LD 1.00/CD 0.7 μg/kg/hr",310 mL/min
same,clearance,"CL, Table 30 key summary (mean), Dose Level 4, LD 1.00/CD 2.00 μg/kg/hr",370 mL/min
same,Cmax,"Cmax Mean, Dose Level 1, LD 0.25/CD 0.2 μg/kg/hr",0.48 ng/mL
same,Cmax,"Cmax Mean, Dose Level 2, LD 0.50/CD 0.4 μg/kg/hr",0.848 ng/mL
same,Cmax,"Cmax Mean, Dose Level 3, LD 1.00/CD 0.7 μg/kg/hr",3.39 ng/mL
same,Cmax,"Cmax Mean, Dose Level 4, LD 1.00/CD 2.00 μg/kg/hr",3.09 ng/mL
same,Cmax,"Cmax Median, Dose Level 1, LD 0.25/CD 0.2 μg/kg/hr",0.266 ng/mL
same,Cmax,"Cmax Median, Dose Level 2, LD 0.50/CD 0.4 μg/kg/hr",0.581 ng/mL
same,Cmax,"Cmax Median, Dose Level 3, LD 1.00/CD 0.7 μg/kg/hr",0.966 ng/mL
same,Cmax,"Cmax Median, Dose Level 4, LD 1.00/CD 2.00 μg/kg/hr",2.69 ng/mL
same,Cmax,"Cmax, Table 30 key summary (mean), Dose Level 1, LD 0.25/CD 0.2 μg/kg/hr",0.48 ng/mL
same,Cmax,"Cmax, Table 30 key summary (mean), Dose Level 2, LD 0.50/CD 0.4 μg/kg/hr",0.848 ng/mL
same,Cmax,"Cmax, Table 30 key summary (mean), Dose Level 3, LD 1.00/CD 0.7 μg/kg/hr",3.39 ng/mL
same,Cmax,"Cmax, Table 30 key summary (mean), Dose Level 4, LD 1.00/CD 2.00 μg/kg/hr",3.09 ng/mL
same,Tmax,"Tmax Mean, Dose Level 1, LD 0.25/CD 0.2 μg/kg/hr",7.31 h
same,Tmax,"Tmax Mean, Dose Level 2, LD 0.50/CD 0.4 μg/kg/hr",8.8 h
same,Tmax,"Tmax Mean, Dose Level 3, LD 1.00/CD 0.7 μg/kg/hr",2.17 h
same,Tmax,"Tmax Mean, Dose Level 4, LD 1.00/CD 2.00 μg/kg/hr",6.82 h
same,Tmax,"Tmax Median, Dose Level 1, LD 0.25/CD 0.2 μg/kg/hr",6.04 h
same,Tmax,"Tmax Median, Dose Level 2, LD 0.50/CD 0.4 μg/kg/hr",5.68 h
same,Tmax,"Tmax Median, Dose Level 3, LD 1.00/CD 0.7 μg/kg/hr",0.367 h
same,Tmax,"Tmax Median, Dose Level 4, LD 1.00/CD 2.00 μg/kg/hr",5.42 h
same,Vd,"Vd Mean, Dose Level 1, LD 0.25/CD 0.2 μg/kg/hr",62 L
same,Vd,"Vd Mean, Dose Level 2, LD 0.50/CD 0.4 μg/kg/hr",50.6 L
same,Vd,"Vd Mean, Dose Level 3, LD 1.00/CD 0.7 μg/kg/hr",52.3 L
same,Vd,"Vd Mean, Dose Level 4, LD 1.00/CD 2.00 μg/kg/hr",62.2 L
same,Vd,"Vd Median, Dose Level 2, LD 0.50/CD 0.4 μg/kg/hr",40.7 L
same,Vd,"Vd Median, Dose Level 3, LD 1.00/CD 0.7 μg/kg/hr",51.3 L
same,Vd,"Vd Median, Dose Level 4, LD 1.00/CD 2.00 μg/kg/hr",57.8 L
same,Vd,"Vd, Table 30 key summary (mean), Dose Level 1, LD 0.25/CD 0.2 μg/kg/hr",62 L
same,Vd,"Vd, Table 30 key summary (mean), Dose Level 2, LD 0.50/CD 0.4 μg/kg/hr",50.6 L
same,Vd,"Vd, Table 30 key summary (mean), Dose Level 3, LD 1.00/CD 0.7 μg/kg/hr",52.3 L
same,Vd,"Vd, Table 30 key summary (mean), Dose Level 4, LD 1.00/CD 2.00 μg/kg/hr",62.2 L
same,Vd,"Vss Mean, Dose Level 1, LD 0.25/CD 0.2 μg/kg/hr",56.8 L
same,Vd,"Vss Mean, Dose Level 3, LD 1.00/CD 0.7 μg/kg/hr",32.8 L
same,Vd,"Vss Mean, Dose Level 4, LD 1.00/CD 2.00 μg/kg/hr",43.7 L
same,Vd,"Vss Median, Dose Level 1, LD 0.25/CD 0.2 μg/kg/hr",40.3 L
same,Vd,"Vss Median, Dose Level 2, LD 0.50/CD 0.4 μg/kg/hr",30.6 L
same,Vd,"Vss Median, Dose Level 3, LD 1.00/CD 0.7 μg/kg/hr",30.4 L
same,Vd,"Vss Median, Dose Level 4, LD 1.00/CD 2.00 μg/kg/hr",33.1 L
same,clearance,"Weight-adjusted CL Mean, Dose Level 1, LD 0.25/CD 0.2 μg/kg/hr",17.3 mL/min/kg
same,clearance,"Weight-adjusted CL Mean, Dose Level 2, LD 0.50/CD 0.4 μg/kg/hr",15.7 mL/min/kg
same,clearance,"Weight-adjusted CL Mean, Dose Level 3, LD 1.00/CD 0.7 μg/kg/hr",14 mL/min/kg
same,clearance,"Weight-adjusted CL Mean, Dose Level 4, LD 1.00/CD 2.00 μg/kg/hr",14.2 mL/min/kg
same,clearance,"Weight-adjusted CL Median, Dose Level 1, LD 0.25/CD 0.2 μg/kg/hr",19.9 mL/min/kg
same,clearance,"Weight-adjusted CL Median, Dose Level 2, LD 0.50/CD 0.4 μg/kg/hr",14.7 mL/min/kg
same,clearance,"Weight-adjusted CL Median, Dose Level 3, LD 1.00/CD 0.7 μg/kg/hr",14.7 mL/min/kg
same,clearance,"Weight-adjusted CL Median, Dose Level 4, LD 1.00/CD 2.00 μg/kg/hr",13.4 mL/min/kg
same,clearance,"Weight-adjusted CL, Table 30 key summary (mean), Dose Level 1, LD 0.25/CD 0.2 μg/kg/hr",16.7 mL/min/kg
same,clearance,"Weight-adjusted CL, Table 30 key summary (mean), Dose Level 2, LD 0.50/CD 0.4 μg/kg/hr",15 mL/min/kg
same,clearance,"Weight-adjusted CL, Table 30 key summary (mean), Dose Level 3, LD 1.00/CD 0.7 μg/kg/hr",13.3 mL/min/kg
same,clearance,"Weight-adjusted CL, Table 30 key summary (mean), Dose Level 4, LD 1.00/CD 2.00 μg/kg/hr",13.3 mL/min/kg
same,Vd,"Weight-adjusted Vd Mean, Dose Level 1, LD 0.25/CD 0.2 μg/kg/hr",2.17 L/kg
same,Vd,"Weight-adjusted Vd Mean, Dose Level 2, LD 0.50/CD 0.4 μg/kg/hr",2.31 L/kg
same,Vd,"Weight-adjusted Vd Mean, Dose Level 3, LD 1.00/CD 0.7 μg/kg/hr",2.44 L/kg
same,Vd,"Weight-adjusted Vd Mean, Dose Level 4, LD 1.00/CD 2.00 μg/kg/hr",2.48 L/kg
same,Vd,"Weight-adjusted Vd Median, Dose Level 1, LD 0.25/CD 0.2 μg/kg/hr",2.43 L/kg
same,Vd,"Weight-adjusted Vd Median, Dose Level 2, LD 0.50/CD 0.4 μg/kg/hr",2.49 L/kg
same,Vd,"Weight-adjusted Vd Median, Dose Level 3, LD 1.00/CD 0.7 μg/kg/hr",2.19 L/kg
same,Vd,"Weight-adjusted Vd Median, Dose Level 4, LD 1.00/CD 2.00 μg/kg/hr",2.15 L/kg
same,Vd,"Weight-adjusted Vd, Table 30 key summary (mean), Dose Level 1, LD 0.25/CD 0.2 μg/kg/hr",2.2 L/kg
same,Vd,"Weight-adjusted Vd, Table 30 key summary (mean), Dose Level 2, LD 0.50/CD 0.4 μg/kg/hr",2.3 L/kg
same,Vd,"Weight-adjusted Vd, Table 30 key summary (mean), Dose Level 3, LD 1.00/CD 0.7 μg/kg/hr",2.4 L/kg
same,Vd,"Weight-adjusted Vd, Table 30 key summary (mean), Dose Level 4, LD 1.00/CD 2.00 μg/kg/hr",2.5 L/kg
same,half-life,"t1/2, Table 30 key summary (mean), Dose Level 1, LD 0.25/CD 0.2 μg/kg/hr",1.5 h
same,half-life,"t1/2, Table 30 key summary (mean), Dose Level 2, LD 0.50/CD 0.4 μg/kg/hr",1.7 h
same,half-life,"t1/2, Table 30 key summary (mean), Dose Level 3, LD 1.00/CD 0.7 μg/kg/hr",2 h
same,half-life,"t1/2, Table 30 key summary (mean), Dose Level 4, LD 1.00/CD 2.00 μg/kg/hr",2.1 h
same,half-life,"t1/2 Mean, Dose Level 1, LD 0.25/CD 0.2 μg/kg/hr",1.55 h
same,half-life,"t1/2 Mean, Dose Level 2, LD 0.50/CD 0.4 μg/kg/hr",1.74 h
same,half-life,"t1/2 Mean, Dose Level 3, LD 1.00/CD 0.7 μg/kg/hr",2.04 h
same,half-life,"t1/2 Mean, Dose Level 4, LD 1.00/CD 2.00 μg/kg/hr",2.14 h
same,half-life,"t1/2 Median, Dose Level 1, LD 0.25/CD 0.2 μg/kg/hr",1.56 h
same,half-life,"t1/2 Median, Dose Level 2, LD 0.50/CD 0.4 μg/kg/hr",1.69 h
same,half-life,"t1/2 Median, Dose Level 3, LD 1.00/CD 0.7 μg/kg/hr",1.79 h
same,half-life,"t1/2 Median, Dose Level 4, LD 1.00/CD 2.00 μg/kg/hr",2.12 h
